Patent US20230167467A1, “METHODS AND COMPOSITIONS FOR THE PRODUCTION OF ISOBUTENE” (University of Alaska Anchorage, priority 2020, published 2023)

Test system: Engineered strains of E. coli
Format: cell-based
Settings: for change in expression of gene adiA / change in expression of gene adiC / change in expression of gene adiY / change in expression of gene bhsA / change in expression of gene bssR / change in expression of gene bssS / change in expression of gene clpA / change in expression of gene clpB / change in expression of gene clpP / change in expression of gene coaA / change in expression of gene coaD / change in expression of gene cspA / change in expression of gene cspB / change in expression of gene cspC / change in expression of gene cspD / change in expression of gene cspE / change in expression of gene cspF / change in expression of gene dhaK / change in expression of gene dhaL / change in expression of gene dnaJ / change in expression of gene dnaK / change in expression of gene fabA / change in expression of gene fabB / change in expression of gene fabD / change in expression of gene flgA / change in expression of gene flgB / change in expression of gene flgC / change in expression of gene flgD / change in expression of gene flgE / change in expression of gene flgF / change in expression of gene flgG / change in expression of gene flgH / change in expression of gene gabD / change in expression of gene gabP / change in expression of gene gabT / change in expression of gene gadA / change in expression of gene gadB / change in expression of gene gadC / change in expression of gene gadE / change in expression of gene gadW / change in expression of gene gadX / change in expression of gene gadY / change in expression of gene glpA / change in expression of gene glpB / change in expression of gene glpC / change in expression of gene groL / change in expression of gene groS / change in expression of gene hchA / change in expression of gene hslJ / change in expression of gene hslO / change in expression of gene hslR / change in expression of gene hslU / change in expression of gene hslV / change in expression of gene ibpA / change in expression of gene ibpB / change in expression of gene lhgO / change in expression of gene lipA / change in expression of gene lipB / change in expression of gene narG / change in expression of gene narH / change in expression of gene narI / change in expression of gene narJ / change in expression of gene narK / change in expression of gene potA / change in expression of gene potB / change in expression of gene potC / change in expression of gene pspA / change in expression of gene pspB / change in expression of gene rpoA / change in expression of gene rpoB / change in expression of gene rpoC / change in expression of gene rpoD / change in expression of gene rpoE / change in expression of gene rpoH / change in expression of gene rpoN / change in expression of gene rpoS / change in expression of gene rpoZ / change in expression of gene spy / change in expression of gene tatA / change in expression of gene tatB / change in expression of gene tatC / change in expression of gene tatD / change in expression of gene tatE: after solvent exposure, vs positive control; for number of genes with significant changes in expression: vs control, Bon Ferroni corrected p-value<0.05

CCCCCC [hexane]
expression of acid resistance genes (gad, adi families): downregulated
expression of chaperone proteins groLS, spy, and dnaJK: highly upregulated
expression of dihydroxyacetone kinase genes dhaKLM: upregulated
expression of flagellar protein synthesis and assembly genes: downregulated
expression of gadE and adiY: significantly downregulated
expression of galactitol metabolism genes gatABD: upregulated
expression of glpABC (glycerol to glycerone phosphate): upregulated
expression of heat shock proteins and chaperones hslJORUV: strongest increases
expression of ibpAB and clpAB (protein protection and repair): strongest increases
expression of marABC (multiple antibiotic resistance): upregulated
expression of nitrate reductase genes narGHJKP: upregulated
expression of phage shock genes pspABCDE: highly upregulated
change in expression of gene adiA: −4.64 ± 0.88
change in expression of gene adiC: −4.53 ± 1.04
change in expression of gene adiY: −3.19 ± 0.66
change in expression of gene bhsA: 3.01 ± 0.60
change in expression of gene bssR: 1.50 ± 0.44
change in expression of gene bssS: 5.47 ± 0.84
change in expression of gene clpA: 2.49 ± 0.63
change in expression of gene clpB: 5.02 ± 0.69
change in expression of gene clpP: 1.52 ± 0.59
change in expression of gene coaA: −2.34 ± 0.88
change in expression of gene coaD: 0.57 ± 0.90
change in expression of gene cspA: −4.08 ± 0.57
change in expression of gene cspB: −4.25 ± 1.30
change in expression of gene cspC: −2.22 ± 0.90
change in expression of gene cspD: 2.07 ± 0.57
change in expression of gene cspE: −0.53 ± 0.63
change in expression of gene cspF: −3.67 ± 1.04
change in expression of gene dhaK: 3.83 ± 0.58
change in expression of gene dhaL: 2.77 ± 0.62
change in expression of gene dnaJ: 4.46 ± 0.69
change in expression of gene dnaK: 4.31 ± 0.66
change in expression of gene fabA: −0.96 ± 0.75
change in expression of gene fabB: 2.15 ± 0.66
change in expression of gene fabD: −0.89 ± 0.52
change in expression of gene flgA: −2.91 ± 1.55
change in expression of gene flgB: −6.86 ± 1.62
change in expression of gene flgC: −7.12 ± 2.02
change in expression of gene flgD: −6.97 ± 1.94
change in expression of gene flgE: −5.83 ± 1.20
change in expression of gene flgF: −5.93 ± 1.66
change in expression of gene flgG: −5.59 ± 1.51
change in expression of gene flgH: −4.58 ± 1.75
change in expression of gene gabD: −1.81 ± 1.34
change in expression of gene gabP: −3.20 ± 1.33
change in expression of gene gabT: −1.73 ± 1.30
change in expression of gene gadA: −1.47 ± 0.68
change in expression of gene gadB: −0.69 ± 0.80
change in expression of gene gadC: −0.25 ± 0.80
change in expression of gene gadE: −2.22 ± 0.60
change in expression of gene gadW: −4.92 ± 0.97
change in expression of gene gadX: −2.95 ± 0.57
change in expression of gene gadY: −5.22 ± 0.81
change in expression of gene glpA: 7.69 ± 0.87
change in expression of gene glpB: 5.40 ± 0.63
change in expression of gene glpC: 6.04 ± 0.79
change in expression of gene groL: 4.16 ± 0.57
change in expression of gene groS: 4.25 ± 0.50
change in expression of gene hchA: 0.77 ± 0.60
change in expression of gene hslJ: 2.29 ± 0.65
change in expression of gene hslO: 3.04 ± 0.64
change in expression of gene hslR: 3.21 ± 0.65
change in expression of gene hslU: 3.61 ± 0.55
change in expression of gene hslV: 2.94 ± 0.61
change in expression of gene ibpA: 7.63 ± 1.21
change in expression of gene ibpB: 8.41 ± 1.50
change in expression of gene lhgO: −1.20 ± 1.67
change in expression of gene lipA: 0.42 ± 0.59
change in expression of gene lipB: −0.05 ± 0.63
change in expression of gene narG: 4.03 ± 0.65
change in expression of gene narH: 3.23 ± 0.61
change in expression of gene narI: 2.02 ± 0.92
change in expression of gene narJ: 2.26 ± 0.68
change in expression of gene narK: 2.20 ± 0.84
change in expression of gene potA: −2.87 ± 0.80
change in expression of gene potB: −2.22 ± 1.29
change in expression of gene potC: −1.06 ± 1.18
change in expression of gene pspA: 8.97 ± 0.55
change in expression of gene pspB: 7.11 ± 0.68
change in expression of gene rpoA: 0.76 ± 0.44
change in expression of gene rpoB: 0.54 ± 0.40
change in expression of gene rpoC: 1.02 ± 0.39
change in expression of gene rpoD: 3.14 ± 0.70
change in expression of gene rpoE: −2.64 ± 0.62
change in expression of gene rpoH: 0.31 ± 0.52
change in expression of gene rpoN: −1.24 ± 0.49
change in expression of gene rpoS: 0.42 ± 0.47
change in expression of gene rpoZ: −0.98 ± 0.53
change in expression of gene spy: 4.12 ± 0.87
change in expression of gene tatA: −0.89 ± 0.51
change in expression of gene tatB: −0.66 ± 0.58
change in expression of gene tatC: −1.03 ± 1.08
change in expression of gene tatD: −2.65 ± 1.13
change in expression of gene tatE: 0.78 ± 0.63
number of genes with significant changes in expression: 535 genes

CC(C)=O [acetone]
expression of accBC (fatty acid biosynthesis): downregulated
expression of bssRS (decreasing biofilm material): upregulated
expression of chaperone genes groLS and dnaJK: increased expression
expression of gad genes: increase in expression
expression of gadABCE (acid resistance via GABA production): upregulated
expression of glpABC (glycerol to glycerone phosphate): increased in expression
expression of heat shock proteins and chaperones hslJORUV: upregulation
expression of ibpAB and clpAB (protein protection and repair): increased
expression of marA: upregulated
change in expression of gene adiA: 1.50 ± 0.91
change in expression of gene adiC: −0.54 ± 1.10
change in expression of gene adiY: −0.57 ± 0.71
change in expression of gene bhsA: 4.49 ± 0.62
change in expression of gene bssR: 2.34 ± .46
change in expression of gene bssS: 5.02 ± .88
change in expression of gene clpA: 1.92 ± .68
change in expression of gene clpB: 4.51 ± .69
change in expression of gene clpP: 1.39 ± 0.63
change in expression of gene coaA: −3.10 ± 1.0
change in expression of gene coaD: 0.05 ± 1.01
change in expression of gene cspA: −4.58 ± 0.64
change in expression of gene cspB: −5.17 ± 1.49
change in expression of gene cspC: −0.95 ± .98
change in expression of gene cspD: 2.52 ± 0.63
change in expression of gene cspE: −2.45 ± 0.72
change in expression of gene cspF: −5.06 ± 1.34
change in expression of gene dhaK: 0.26 ± 0.67
change in expression of gene dhaL: −0.41 ± 0.74
change in expression of gene dnaJ: 2.96 ± 0.74
change in expression of gene dnaK: 4.58 ± 0.66
change in expression of gene fabA: −0.85 ± 0.84
change in expression of gene fabB: 1.61 ± 0.72
change in expression of gene fabD: −1.74 ± 0.59
change in expression of gene flgA: −2.14 ± 1.68
change in expression of gene flgB: −4.07 ± 1.67
change in expression of gene flgC: −4.24 ± 2.06
change in expression of gene flgD: −4.39 ± 2
change in expression of gene flgE: −4.02 ± 1.30
change in expression of gene flgF: −2.98 ± 1.7
change in expression of gene flgG: −4.98 ± 1.68
change in expression of gene flgH: −2.24 ± 1.82
change in expression of gene gabD: 0.73 ± 1.41
change in expression of gene gabP: −1.06 ± 1.42
change in expression of gene gabT: 0.34 ± 1.38
change in expression of gene gadA: 4.57 ± 0.70
change in expression of gene gadB: 4.53 ± 0.82
change in expression of gene gadC: 4.83 ± 0.82
change in expression of gene gadE: 2.23 ± .62
change in expression of gene gadW: 1.58 ± 1
change in expression of gene gadX: 1.71 ± 0.59
change in expression of gene gadY: 0.05 ± 0.83
change in expression of gene glpA: 4.83 ± 0.91
change in expression of gene glpB: 2.81 ± 0.69
change in expression of gene glpC: 3.12 ± 0.87
change in expression of gene groL: 4.18 ± 0.58
change in expression of gene groS: 4.58 ± 0.51
change in expression of gene hchA: 4.64 ± 0.64
change in expression of gene hslJ: −0.10 ± 0.75
change in expression of gene hslO: 2.78 ± 0.69
change in expression of gene hslR: 3.01 ± 0.70
change in expression of gene hslU: 2.69 ± 0.59
change in expression of gene hslV: 2.24 ± 0.67
change in expression of gene ibpA: 5.64 ± 1.22
change in expression of gene ibpB: 6.70 ± 1.51
change in expression of gene lhgO: 1.82 ± 1.73
change in expression of gene lipA: −1.03 ± 0.69
change in expression of gene lipB: −1.11 ± 0.75
change in expression of gene narG: 2.69 ± 0.70
change in expression of gene narH: 2.94 ± 0.66
change in expression of gene narI: 1.48 ± 1.02
change in expression of gene narJ: 1.75 ± 0.74
change in expression of gene narK: 0.21 ± 0.96
change in expression of gene potA: −3.62 ± 0.91
change in expression of gene potB: −2.22 ± 1.43
change in expression of gene potC: −3.06 ± 1.45
change in expression of gene pspA: 2.10 ± 0.60
change in expression of gene pspB: 0.76 ± 0.80
change in expression of gene rpoA: −0.20 ± 0.47
change in expression of gene rpoB: −0.26 ± 0.43
change in expression of gene rpoC: −0.29 ± 0.43
change in expression of gene rpoD: 1.41 ± 0.72
change in expression of gene rpoE: −0.26 ± 0.66
change in expression of gene rpoH: 1.72 ± 0.55
change in expression of gene rpoN: −1.18 ± 0.54
change in expression of gene rpoS: 1.63 ± 0.51
change in expression of gene rpoZ: −1.83 ± 0.60
change in expression of gene spy: 1.90 ± 0.95
change in expression of gene tatA: −1.15 ± 0.57
change in expression of gene tatB: −1.35 ± 0.65
change in expression of gene tatC: −2.55 ± 1.23
change in expression of gene tatD: −1.90 ± 1.23
change in expression of gene tatE: 0.41 ± 0.70
number of genes with significant changes in expression: 399 genes
